Laboratory results reported in patent US10550135B2, “Silicon incorporated quinolines with anti-malarial and anti-toxoplasmosis activity” (Council of Scientific & Industrial Research, priority 2016, dated 2020).

Assays:
[1] = test system: T. gondii; assay: Anti-toxoplasma screening, luciferase-expressing T. gondii (TgLuc+) in HFF cells, luminescence; assay type: cell-based; details: for inhibition at 10 µM: 48 h, primary screen, TgLuc+ tachyzoites in HFF cells, 2 days
Method: (§1) • a) Anti-malarial screening: Plasmodium falciparum (3D7; Malaria Research and Reference Reagent Resource Center ID NO: MRA-102) is cultured in the laboratory as per standard protocols [Moll et. al. 2008]. Briefly, P. falciparum is cultured using 2% hematocrit washed RBCs, separated from freshly collected human blood, in RPMI media containing glutamine, sodium bicarbonate and antibiotics. Parasites are routinely synchronized using 5% sorbitol treatment. Anti-malarial screens are carried out in two stages: 1) a primary screen at a fixed concentration of 10 μM to find out % inhibition of growth; and 2) a dose assay for finding out the IC50 of hits identified from the primary screen. In both assays the following steps are followed. 200 μL's of the diluted parasite culture (2% parasitemia and 2% hematocrit; at late ring stage), is added to each well in a 96 well plate pre-seeded with the compound of interest at the required concentration of 10 μM. The master stocks and dilutions of the compounds are prepared in cell culture grade DMSO. NOTE: DMSO only treatment control is done and the results are used for normalizing the data obtained from compound treatment. All compounds are plated in triplicates. Each 96 well plate also includes negative control (compound untreated culture) and positive control (standard anti-malarial treated culture). Standard anti-malarials used are chloroquine, artemisinine and atovaquone, each at 1 μM concentration. After plating, the culture is incubated in standard growth condition for 60 hours, after which the cultures are processed for testing the effect of compounds on parasite growth using SybrGreen staining and fluorescence measurements at 520 nm emission following excitation at 498 nm. Since only the parasites have DNA (as RBCs are devoid of nucleus), the SybrGreen signal is a direct indictor of parasite density in respective samples. Results are used to quantifying relative parasite growth (or conversely % inhibition of growth) in untreated, standard anti-malarial treated and test molecules treated P. falciparum cultures. Compounds showing greater than 80% reduction in parasitemia are selected from this primary screening for carrying out dose response analysis using the respective test molecules from 10 μM to 1 nM dilution series. Data from this experiment is used for the calculation of IC50 values for the respective test molecules. • b) Anti-toxoplasma screening: For screening bioactivity of test molecules against T. gondii, a transgenic line of the parasite expressing the luciferase gene is used. The parental parasite used to generate the TgLuc+ strain is a Type I (RH) virulent strain (ATCC reference 50174D), which can also be used for in vivo studies in mice, if needed. The tachyzoite stage of the parasites are routinely cultured in the laboratory using standard protocols [Roos et al., 1994. In brief, a confluent monolayer of Human Foreskin Fibroblast (HFF; ATCC reference SCRS-1041) cells in culture are used as the host cells for infection with tachyzoite stage T. gondii. The culture media used to grow parasites is standard complete DMEM (Gibco BRL, USA) containing glucose (5.5 mM), glutamine (2 mM), Hepes (25 mM) and 1% dialyzed bovine fetal calf serum (Gibco BRL, USA). For bioactivity assays, the HFF cells are grown in 96 well plates and each well is infected with 1×10^4 TgLuc+ parasitesin the presence of 10 μM of test molecules (in primary screens) in a total volume of 200 μL. After 2 days of incubation and growth in a 37° C. incubator maintaining 5% CO2, the 96 well plates are processed for luminescence measurements using the reagents in the luciferase assay kit (Promega, USA). […]

[2] = test system: Plasmodium falciparum (3D7); assay: Anti-malarial screening, P. falciparum 3D7 growth in human RBC culture, SybrGreen fluorescence; assay type: cell-based; details: for inhibition at 10 µM: primary screen, 3D7, 60 hours; for EC50: dose response, 10 μM to 1 nM dilution series, 3D7
Method: as §1

Compound	inhibition at 10 µM [1]	EC50 ([1]; HFF, dose response, 10 μM to 1 nM dilution series)	inhibition at 10 µM [2]	EC50 [2]
C[Si]1(C)CCN(Cc2ccc(-c3cc(C(=O)NCCN4CCCC4)c4cc(F)ccc4n3)cc2)CC1 [NDS 100950, 2-(4-((4,4-dimethyl-1,4-azasilinan-1-yl)methyl)phenyl)-6-fluoro-N-(2-(pyrrolidin-1-yl)ethyl)quinoline-4-carboxamide]	95.2%	3.94 µM	95.7%	0.06 µM
C[Si]1(C)CCN(CCNC(=O)c2cc(-c3ccc(CN4CCOCC4)cc3)nc3ccc(F)cc23)CC1 [NDS 100951, N-(2-(4,4-dimethyl-1,4-azasilinan-1-yl)ethyl)-6-fluoro-2-(4-(morpholinomethyl)phenyl)quinoline-4-carboxamide]	21.8%		93.6%	0.05 µM
C[Si]1(C)CCN(C(=O)c2cc(-c3ccc(CN4CCOCC4)cc3)nc3ccc(F)cc23)CC1 [NDS 101006, (4,4-dimethyl-1,4-azasilinan-1-yl)(6-fluoro-2-(4-(morpholinomethyl)phenyl)quinolin-4-yl)methanone]	0%		1.87%	
C[Si]1(C)CCN(Cc2ccc(-c3cc(C(=O)N4CCOCC4)c4cc(F)ccc4n3)cc2)CC1 [NDS 101007, (2-(4-((4,4-dimethyl-1,4-azasilinan-1-yl)methyl)phenyl)-6-fluoroquinolin-4-yl)(morpholino)methanone]	3%		2.79%	
C[Si]1(C)CCN(Cc2ccc(-c3cc(C(=O)NCCN4CCOCC4)c4cc(F)ccc4n3)cc2)CC1 [NDS 101008, 2-(4-((4,4-dimethyl-1,4-azasilinan-1-yl)methyl)phenyl)-6-fluoro-N-(2-morpholinoethyl)quinoline-4-carboxamide]	3%		95.9%	1.26 µM
C[Si]1(C)CCN(Cc2ccc(-c3cc(C(=O)Nc4ccccn4)c4cc(F)ccc4n3)cc2)CC1 [NDS 101009, 2-(4-((4,4-dimethyl-1,4-azasilinan-1-yl)methyl)phenyl)-6-fluoro-N-(pyridin-2-yl)quinoline-4-carboxamide]	31%		97.1%	0.81 µM
C[Si](C)(C)CCNC(=O)c1cc(-c2ccc(CN3CCOCC3)cc2)nc2ccc(F)cc12 [NDS 101037, 6-fluoro-2-(4-(morpholinomethyl)phenyl)-N-(2-(trimethylsilyl)ethyl)quinoline-4-carboxamide]	45%		9.16%	
C[Si]1(C)CCN(Cc2ccc(-c3cc(C(=O)NCCN4CCCCC4)c4cc(F)ccc4n3)cc2)CC1 [NDS 101074, 2-(4-((4,4-dimethyl-1,4-azasilinan-1-yl)methyl)phenyl)-6-fluoro-N-(2-(piperidin-1-yl)ethyl)quinoline-4-carboxamide]			78.8%	0.112 µM
CN1CCN(CCNC(=O)c2cc(-c3ccc(CN4CC[Si](C)(C)CC4)cc3)nc3ccc(F)cc23)CC1 [NDS 101075, 2-(4-((4,4-dimethyl-1,4-azasilinan-1-yl)methyl)phenyl)-6-fluoro-N-(2-(4-methylpiperazin-1-yl)ethyl)quinoline-4-carboxamide]			95.2%	0.403 µM
C[Si]1(C)CCN(Cc2ccc(-c3cc(C(=O)NCCO)c4cc(F)ccc4n3)cc2)CC1 [NDS 101076, 2-(4-((4,4-dimethyl-1,4-azasilinan-1-yl)methyl)phenyl)-6-fluoro-N-(2-hydroxyethyl)quinoline-4-carboxamide]			81.4%	6.12 µM
C[Si]1(C)CCN(Cc2ccc(-c3cc(C(=O)NCCN4CCSCC4)c4cc(F)ccc4n3)cc2)CC1 [NDS 101077, 2-(4-((4,4-dimethyl-1,4-azasilinan-1-yl)methyl)phenyl)-6-fluoro-N-(2-thiomorpholinoethyl)quinoline-4-carboxamide]			95.5%	0.95 µM
